Test results from the NIST ThermoML archive (doi:10.1021/je049918m).
Where “and” joins values, the source holds several entries; their conditions need not be identical. Equal values may be shown once.

Details: Liquid, Falling or rolling sphere viscometry

[2H]O[2H] [water-d2]
Details | viscosity
255.65 K, 212200 kPa | 3.963 mPa·s
255.65 K, 220100 kPa | 3.973 mPa·s
255.65 K, 239200 kPa | 4.012 mPa·s
255.65 K, 249500 kPa | 4.036 mPa·s
258.15 K, 196900 kPa | 3.566 mPa·s
258.15 K, 215300 kPa | 3.588 mPa·s
258.15 K, 242900 kPa | 3.629 mPa·s
258.15 K, 271000 kPa | 3.697 mPa·s
258.15 K, 298500 kPa | 3.777 mPa·s
258.15 K, 315600 kPa | 3.835 mPa·s
263.15 K, 153200 kPa | 2.939 mPa·s
263.15 K, 160800 kPa | 2.937 mPa·s
263.15 K, 185300 kPa | 2.944 mPa·s
263.15 K, 200800 kPa | 2.953 mPa·s
263.15 K, 249500 kPa | 3.02 mPa·s
263.15 K, 299600 kPa | 3.125 mPa·s
263.15 K, 347100 kPa | 3.26 mPa·s
263.15 K, 383400 kPa | 3.381 mPa·s
268.15 K, 109700 kPa | 2.494 mPa·s
268.15 K, 125300 kPa | 2.475 mPa·s
268.15 K, 150900 kPa | 2.468 mPa·s
268.15 K, 174700 kPa | 2.464 mPa·s
268.15 K, 201200 kPa | 2.481 mPa·s
268.15 K, 251400 kPa | 2.535 mPa·s
268.15 K, 289200 kPa | 2.601 mPa·s
268.15 K, 325500 kPa | 2.675 mPa·s
268.15 K, 390600 kPa | 2.85 mPa·s
273.15 K, 52000 kPa | 2.196 mPa·s
273.15 K, 69600 kPa | 2.159 mPa·s
273.15 K, 99700 kPa | 2.116 mPa·s
273.15 K, 130400 kPa | 2.098 mPa·s
273.15 K, 150600 kPa | 2.096 mPa·s
273.15 K, 177300 kPa | 2.103 mPa·s
273.15 K, 204300 kPa | 2.119 mPa·s
273.15 K, 223000 kPa | 2.135 mPa·s
273.15 K, 252900 kPa | 2.165 mPa·s
273.15 K, 279500 kPa | 2.203 mPa·s
273.15 K, 302900 kPa | 2.234 mPa·s
273.15 K, 350500 kPa | 2.318 mPa·s
273.15 K, 357500 kPa | 2.336 mPa·s
273.15 K, 395200 kPa | 2.435 mPa·s
278.15 K, 100 kPa | 1.987 mPa·s
278.15 K, 3100 kPa | 1.977 mPa·s
278.15 K, 5600 kPa | 1.968 mPa·s
278.15 K, 8100 kPa | 1.961 mPa·s
278.15 K, 10800 kPa | 1.952 mPa·s
278.15 K, 25900 kPa | 1.911 mPa·s
278.15 K, 50800 kPa | 1.862 mPa·s
278.15 K, 75600 kPa | 1.829 mPa·s
278.15 K, 100700 kPa | 1.811 mPa·s
278.15 K, 125600 kPa | 1.803 mPa·s
278.15 K, 150500 kPa | 1.802 mPa·s
278.15 K, 174500 kPa | 1.809 mPa·s
278.15 K, 199100 kPa | 1.822 mPa·s
278.15 K, 224100 kPa | 1.841 mPa·s
278.15 K, 249600 kPa | 1.865 mPa·s
278.15 K, 299700 kPa | 1.922 mPa·s
278.15 K, 349100 kPa | 1.993 mPa·s
283.15 K, 100 kPa | 1.677 mPa·s
283.15 K, 200 kPa | 1.676 mPa·s and 1.677 mPa·s
283.15 K, 3000 kPa | 1.67 mPa·s
283.15 K, 5600 kPa | 1.665 mPa·s
283.15 K, 8100 kPa | 1.66 mPa·s
283.15 K, 10800 kPa | 1.655 mPa·s
283.15 K, 25800 kPa | 1.629 mPa·s
283.15 K, 50800 kPa | 1.597 mPa·s and 1.598 mPa·s
283.15 K, 100800 kPa | 1.569 mPa·s and 1.567 mPa·s
283.15 K, 125500 kPa | 1.566 mPa·s
283.15 K, 150600 kPa | 1.57 mPa·s
283.15 K, 150800 kPa | 1.569 mPa·s
283.15 K, 175500 kPa | 1.579 mPa·s
283.15 K, 199400 kPa | 1.592 mPa·s
283.15 K, 199700 kPa | 1.592 mPa·s
283.15 K, 224300 kPa | 1.608 mPa·s
283.15 K, 249600 kPa | 1.629 mPa·s
283.15 K, 249700 kPa | 1.63 mPa·s
283.15 K, 299200 kPa | 1.678 mPa·s
283.15 K, 299600 kPa | 1.678 mPa·s
283.15 K, 348600 kPa | 1.737 mPa·s
283.15 K, 348700 kPa | 1.737 mPa·s
298.15 K, 100 kPa | 1.097 mPa·s [middle of 6 runs]
298.15 K, 200 kPa | 1.095 mPa·s
298.15 K, 5600 kPa | 1.092 mPa·s
298.15 K, 8000 kPa | 1.09 mPa·s
298.15 K, 10300 kPa | 1.091 mPa·s
298.15 K, 10700 kPa | 1.09 mPa·s
298.15 K, 25700 kPa | 1.084 mPa·s
298.15 K, 30700 kPa | 1.084 mPa·s
298.15 K, 50700 kPa | 1.079 mPa·s and 1.081 mPa·s
298.15 K, 60700 kPa | 1.079 mPa·s
298.15 K, 75600 kPa | 1.08 mPa·s
298.15 K, 90600 kPa | 1.081 mPa·s
298.15 K, 90700 kPa | 1.081 mPa·s
298.15 K, 100600 kPa | 1.081 mPa·s
298.15 K, 120700 kPa | 1.086 mPa·s
298.15 K, 125600 kPa | 1.087 mPa·s
298.15 K, 130600 kPa | 1.089 mPa·s
298.15 K, 150600 kPa | 1.094 mPa·s and 1.095 mPa·s
298.15 K, 170500 kPa | 1.104 mPa·s
298.15 K, 175600 kPa | 1.105 mPa·s
298.15 K, 180600 kPa | 1.108 mPa·s
298.15 K, 200600 kPa | 1.117 mPa·s
298.15 K, 210200 kPa | 1.122 mPa·s
298.15 K, 210600 kPa | 1.123 mPa·s
298.15 K, 225500 kPa | 1.131 mPa·s
298.15 K, 240600 kPa | 1.141 mPa·s
298.15 K, 249700 kPa | 1.146 mPa·s
298.15 K, 270500 kPa | 1.16 mPa·s
298.15 K, 299600 kPa | 1.181 mPa·s
298.15 K, 300300 kPa | 1.182 mPa·s
298.15 K, 330100 kPa | 1.205 mPa·s
298.15 K, 331900 kPa | 1.205 mPa·s
298.15 K, 349000 kPa | 1.221 mPa·s
298.15 K, 359800 kPa | 1.23 mPa·s
298.15 K, 389400 kPa | 1.257 mPa·s
